Data: patent publication US8187822B2, “Methods to identify modulators” (Givaudan S.A., priority 2007, dated 2012)

Legend:
TAS2R1 = molecular target: T1, TAS2R1 (Homo sapiens, UniProt Q9NYW7); test: Fluo-4 calcium assay, HEK293T cells stably expressing Gα16-gustducin44 and TAS2R1; assay type: cell-based
T1 construct: The full length gene of human TAS2R44 was amplified by polymerase chain reaction (PCR) using gene-specific primers that span the entire coding region; RSS tag (first 45 amino acids of rat somatostatin receptor subtype 3) (N); expressed in transfected cells
T1 sequence (Q9NYW7 1-299): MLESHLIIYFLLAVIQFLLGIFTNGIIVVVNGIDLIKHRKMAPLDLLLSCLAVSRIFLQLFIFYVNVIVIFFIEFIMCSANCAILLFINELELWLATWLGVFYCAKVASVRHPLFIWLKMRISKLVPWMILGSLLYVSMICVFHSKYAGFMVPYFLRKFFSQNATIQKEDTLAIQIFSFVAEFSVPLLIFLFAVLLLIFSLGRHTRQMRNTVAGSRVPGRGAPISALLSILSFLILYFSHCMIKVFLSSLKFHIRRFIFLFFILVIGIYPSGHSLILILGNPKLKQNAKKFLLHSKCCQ
Method: Cell lines that stably expresses a SABR (TAS2R44, TAS2R1, TAS2R10) was generated by transfecting pcDNA3.1Zeo-SABR into HEK293T/Gα16-gustducin 44 cells (both formed as described in example 1). The host cell line HEK-293T is commercially available from the American Tissue Culture Collection (ATCC), ATCC®# CRL-11268.
TAS2R1 expressing cells were identified by their response to 0.5 mM chloramphenicol (a known TAS2R1 agonist as described in WO 2006/053771) in addition to sucralose, which was determined via automated fluorimetric imaging on the FLIPR-Tetra instrumentation (Molecular Devices) using the methods described in Example 3. One clone was selected resulting in the HEK293T/Gα16-gustducin 44/TAS2R1 cell line.
(§1) At day 0, the HEK293T cell line expressing Gα16-gustducin44 and a TAS2R bitter taste receptor formed as described in examples 2b or 2c was seeded in antibiotic-free growth medium (standard DMEM with 10% (v/v) heat-inactivated fetal bovine serum, 2 mM L-glutamine[…]) into black wall/clear bottom 96-well plates, coated with poly(ethylenimine) (0.005% v/v) at a concentration of 15,000 cells per well and incubated for 48 hours in humidified atmosphere (37° C., 5% CO2).
(§2) At the time of the assay, the growth medium was discarded and the cells were in humidified atmosphere (37° C., 5% CO2) for 1 hour with 50 μl of loading buffer consisting of 1.5 μM Fluo-4 AM and […] probenicid (Sigma-Aldrich, St. Louis, Mo., US) in DMEM.
(§3) Afterwards, the 96-well plate was washed 5 times with 100 μl of assay buffer (130 mM NaCl, 5 mM KCl, 10 mM HEPES, 2 mM CaCl2, and 5 mM dextrose, pH 7.4) per well, using an automated plate washer (BioTek). The plate was further incubated for 30 minutes at room temperature in the dark to allow for complete de-esterification of the Fluo-4. Afterwards the plate was washed 5 times with 100 μl of assay buffer per well, and reconstituted with 100 μl of assay buffer per well.
(§4) For assay reading, the plate was placed in a Fluorometric Imaging Plate Reader (FLIPR) (FLIPR-TETRA™, Molecular Devices, Sunnyvale, Calif., US), and receptor activation was initiated by addition of 100 μl of a twofold concentrated agonist stock solution (to give the desired agonist end concentration when added to the 100 microliter assay buffer volume), which was prepared in assay buffer.
(§5) Fluorescence was continuously monitored for 20 seconds to give a signal baseline (averaged to give F0) prior to agonist addition and for 120 seconds after agonist addition. The change in signal divided by F0 gives ΔF/F0 indicated in the table, with ΔF being the maximum signal occurring within the 120 seconds minus the minimum signal (occurring within the 120 seconds after agonist addition.
(§6) All data was collected from at least two independent experiments each carried out in triplicate.
(§7) The obtained calcium signals were corrected for the response of cells expressing only the G Protein α subunit (Gα16-gustducin44) and normalized to the fluorescence of cells prior to the stimulus using ΔF/F0 (Fmax−Fmin/F0).
The intracellular calcium response following addition of sucralose was determined in HEK293T cell line stably expressing Gα16-gustducin44 and TAS2R1 formed as described in example 2c.

TAS2R16 = molecular target: T2, TAS2R16 (Homo sapiens, UniProt Q9NYV7); test: Fluo-4 calcium assay, cells expressing TAS2R16 (control of antagonist specificity); assay type: cell-based; details: for P-β-G + test cpd A ΔF/F0: 25 μM test cpd A
T2 construct: The full length gene of human TAS2R44 was amplified by polymerase chain reaction (PCR) using gene-specific primers that span the entire coding region; RSS tag (first 45 amino acids of rat somatostatin receptor subtype 3) (N); expressed in transfected cells; host or cells: HEK293T cells expressing Gα16-gustducin44
T2 sequence (Q9NYV7 1-291): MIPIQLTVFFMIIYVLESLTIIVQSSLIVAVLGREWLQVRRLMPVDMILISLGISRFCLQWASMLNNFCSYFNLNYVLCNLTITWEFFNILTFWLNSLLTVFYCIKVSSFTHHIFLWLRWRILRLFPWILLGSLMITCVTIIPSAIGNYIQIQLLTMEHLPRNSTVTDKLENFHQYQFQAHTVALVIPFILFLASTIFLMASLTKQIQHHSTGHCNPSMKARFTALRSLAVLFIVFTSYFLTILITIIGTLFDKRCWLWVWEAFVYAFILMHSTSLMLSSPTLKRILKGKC
Method: as §1, §2, §3, §4, §5, §6
A concentration-response analysis was performed and EC50 values were calculated by nonlinear regression using the function f(x)=(a−d)/(1+(x/C)^nh)+d; with a=minimum signal, d=maximum signal, nh=hill coefficient, C=EC50, and x=agonist concentration. EC50 is the molar concentration of an agonist which produces 50% of the maximum possible effective response for that agonist.
as §7
All cells were HEK293T cells stably expressing Gα16-gustducin44, or expressing Gα16-gustducin44 and a TAS2R receptor (TAS2R44, TAS2R16).
The method was carried out as described in example 3 subject to the following modifications: The samples were tested with and without test compound A (test cpd A) and the signals were compared. The test compound was dissolved in dimethylsulfoxide (DMSO), and a negative control with equivalent DMSO concentration (0.02%) was performed accordingly to exclude a potential inhibitory effect of the solvent.
As a control of antagonist specificity, the response of an unrelated bitter taste receptor (TAS2R16) to its agonist phenyl-β-glucopyranosides is also detected (see results in table 8 herein below).

## OC[C@H]1O[C@H](O[C@]2(CCl)O[C@H](CCl)[C@@H](O)[C@@H]2O)[C@H](O)[C@@H](O)[C@H]1Cl [Sucralose, sucralose]
TAS2R1
  calcium signaling in TAS2R1 cells, in words: significant concentration-dependent increase in calcium signaling
TAS2R1; sucralose 0.3906 mM
  TAS2R1 ΔF/F0: 0.052
TAS2R1; sucralose 0.7813 mM
  TAS2R1 ΔF/F0: 0.050
TAS2R1; sucralose 1.5625 mM
  TAS2R1 ΔF/F0: 0.047
TAS2R1; sucralose 3.1250 mM
  TAS2R1 ΔF/F0: 0.059
TAS2R1; sucralose 6.2500 mM
  TAS2R1 ΔF/F0: 0.061
TAS2R1; sucralose 12.5000 mM
  TAS2R1 ΔF/F0: 0.072
TAS2R1; sucralose 25.0000 mM
  TAS2R1 ΔF/F0: 0.104
TAS2R1; sucralose 50.0000 mM
  TAS2R1 ΔF/F0: 0.197
TAS2R1; sucralose 100.0000 mM
  TAS2R1 ΔF/F0: 0.518

## CC1=CCC(C/C=C/C(=O)O)C1(C)C (centres unmarked) [test cpd A, (E)-4-(2,2,3-trimethylcyclopent-3-enyl)but-2-enoic acid]
TAS2R16; P-β-G 0.0391 mM
  P-β-G + test cpd A ΔF/F0: −0.013
TAS2R16; P-β-G 0.0781 mM
  P-β-G + test cpd A ΔF/F0: 0.108
TAS2R16; P-β-G 0.1563 mM
  P-β-G + test cpd A ΔF/F0: 0.702
TAS2R16; P-β-G 0.3125 mM
  P-β-G + test cpd A ΔF/F0: 1.548
TAS2R16; P-β-G 0.6250 mM
  P-β-G + test cpd A ΔF/F0: 2.139
TAS2R16; P-β-G 1.2500 mM
  P-β-G + test cpd A ΔF/F0: 2.367
TAS2R16; P-β-G 2.5000 mM
  P-β-G + test cpd A ΔF/F0: 2.480
TAS2R16; P-β-G 5.0000 mM
  P-β-G + test cpd A ΔF/F0: 2.646
TAS2R16; P-β-G 10.0000 mM
  P-β-G + test cpd A ΔF/F0: 2.830
TAS2R16; test compound at 25 μM
  effect on the response of TAS2R16 to phenyl-β-glucopyranoside, in words: does not block the response
